Tests used:
[1] = system: resistant L1210 murine leukemia cells; assay: Multiple drug resistance, 3H-Thymidine uptake; assay type: cell-based; conditions: Mus musculus, L1210, read-out: IC50 in Resistant Cells
Procedure: (§1) Multiple drug resistance (MDR) was tested in vitro using resistant and sensitive L1210 murine leukemia cells.
(§2) The final concentration of daunorubicin in each well was 0, 0.3, 1, 3, 10, 30, 100 or 1000 ng/ml. […] Fifty microliters of each daunorubicin concentration was added to one well of a flat bottom 96-well culture plate. […] Each drug combination was tested in triplicate.
(§3) The resistant and sensitive cells to be added to each well were grown overnight in a CO2 incubator at 37° C. in RPMI-1640 (10% fetal calf serum and 1% pen-strep). The cells were centrifuged at 1000 rpm for 10 minutes. The cell pellet was resuspended in RPMI-1640 (20% fetal calf serum and 2% pen-strep) and adjusted to 1×10^5 cells/ml. The cells were then added to the wells (100 μl (1×10^4 cells)/well) containing the drug combinations and incubated for 24 hours at 37° C. in a CO2 incubator. Positive control wells contained only cells and media and negative control wells contained cells, media, and 20 μl of 1.5M Tris buffer.
(§4) After 20 hours of incubation, the cells were pulsed with 0.5μ Cu of ^3 H-Thymidine per well. The samples were incubated for another 4 hours. The cells in each well were then harvested using a Skatron Harvester and counted in a beta liquid scintillation counter (LKB).

[2] = system: sensitive L1210 murine leukemia cells; assay: Multiple drug resistance, 3H-Thymidine uptake; assay type: cell-based; conditions: Mus musculus, daunorubicin alone
Procedure: as §1, §2, §3, §4

In the case of `COc1cccc2c1C(=O)c1c(O)c3c(c(O)c1C2=O)C[C@@](O)(C(C)=O)C[C@@H]3O[C@H]1C[C@H](N)[C@H](O)[C@H](C)O1` [Daunorubicin], the IC50 [1] is reported as 0.722 µg/mL and the IC50 [2] is reported as 0.47 µg/mL.

Reference: US5683714A, “Liposomal cyclosporin pharmaceutical formulation” (NeXstar Pharmaceuticals, Inc., priority 1995, dated 1997)
